Peptide text beside a SMILES is read from it.
Tests used:
[1] = Biostability half-life, yeast; type: in vitro ADME
Excerpt: (§1) Table III lists the approximate pharmacokinetics of synthetic peptides described in the present invention which solubilize readily, persist in conformationally active secondary structures in vivo, and induce lysis of representative bacteria, yeast and fungi. These determinations derive from optical density readings (O.D.) and rely on spectrophotometric absorbance from known initial concentrations as reference standards. The optimal therapeutic index for dosage and effective antimicrobial inhibition of a particular polypeptide or salt thereof range between 10-100 and follow routinely without elaborate laboratory determinations by those skilled in the art of pharmacokinetics and metabolic pathways using, for instance, various cytochrome and liver enzymes in vivo.

[2] = Biostability half-life, E. coli; type: in vitro ADME
Excerpt: as §1

[3] = Biostability half-life, mammalian; type: in vitro ADME
Excerpt: as §1

[4] = Solubility (optical density readings); type: physicochemical
Excerpt: as §1

Staph aureus(25923) = test: Minimum inhibitory concentration, broth microdilution in Mueller-Hinton media; type: cell-based; conditions: Staph aureus (ATCC 25923), Gram positive
Excerpt: (§2) Table III lists the minimum inhibitory concentration (ug/mL) for the various organisms assayed in Mueller-Hinton growth media. Details of the microbiological techniques employed are available to those skilled in the art, for instance from the American Type Tissue Culture Catalog (ATCC, Maryland) or DIFCO Manual, 10th Edition, 1984, pp. 78-80. For instance, a cultured solution of the bacterial strains Escherichia coli (American Tissue Culture Collection, Maryland) ATCC […] and Pseudomonas aeruginosa ATCC 27853 can be tested to model Gram-negative bacteria. Bacteria were grown overnight at 37 C. in Mueller-Hinton broth, reinoculated and incubated at 37 C. to reach the exponential phase of bacterial growth [i.e. a final bacterial suspension cantaining from 100,000 to 500,000 colony-forming units [(CFU)/ml]. In 96 well tissue culture plates, peptides dissolved in distilled water were added to the bacterial suspension at concentrations varying between 1000 to 2 ug/mL derived from serial dilutions, and then incubated overnight at 37 C.

Ps. Aruginosa(13883) = test: as above; type: cell-based, Pseudomonas aeruginosa; conditions: Ps. Aruginosa (ATCC 13883), Gram negative
Excerpt: as §2

E. coli(25922) = test: as above; type: cell-based, Escherichia coli; conditions: E. coli (ATCC 25922), Gram negative
Excerpt: as §2

Pichia = test: Minimum inhibitory concentration, broth microdilution; type: cell-based; conditions: Yeast Pichia
Excerpt: as §2

Sac.cerv. = test: as above; type: cell-based; conditions: Yeast Sac.cerv.
Excerpt: as §2

[5] = test system: representative bacteria, yeast and fungi; test: Antimicrobial action (general statement); type: cell-based
Excerpt: as §2, with “In 96 well tissue culture plates, peptides dissolved in distilled water were added to the bacterial suspension at concentrations varying between 1000 to 2 ug/mL derived from serial dilutions, and then incubated overnight at 37 C.” left out
Table III lists the approximate pharmacokinetics of synthetic peptides described in the present invention which solubilize readily, persist in conformationally active secondary structures in vivo, and induce lysis of representative bacteria, yeast and fungi. These determinations derive from optical density readings (O.D.) and rely on spectrophotometric absorbance from known initial concentrations as reference standards. […]

Row | Molecule | Biostability Half-life Yeast [1] | Biostability Half-life E. coli [2] | Biostability Half-life Mammalian [3] | Solubility [4] | Minimum Inhibitory Concentration (MIC) (Staph aureus(25923)) | Minimum Inhibitory Concentration (MIC) (Ps. Aruginosa(13883)) | Minimum Inhibitory Concentration (MIC) (E. coli(25922)) | Minimum Inhibitory Concentration (MIC) (Pichia) | Minimum Inhibitory Concentration (MIC) (Sac.cerv.) | antimicrobial potency [5] | solubility relative to B.t. fragment SEQ. 2 ([4]; ratio SEQ. 1 / SEQ. 2)
1 | CC[C@H](C)[C@H](NC(=O)[C@H](CC(C)C)NC(=O)[C@H](CC(N)=O)NC(=O)[C@H](CCCNC(=N)N)NC(=O)[C@H](CC(C)C)NC(=O)[C@H](CCC(=O)O)NC(=O)[C@H](CO)NC(=O)[C@H](CC(C)C)NC(=O)[C@@H](NC(=O)[C@H](CCCNC(=N)N)NC(=O)[C@H](CCCCN)NC(=O)CNC(=O)[C@@H](NC(=O)[C@H](CC(C)C)NC(=O)[C@H](CO)NC(=O)CNC(=O)[C@@H](N)C(C)C)C(C)C)[C@@H](C)CC)C(N)=O [SEQ. ID 2, VGSLVGKRILSELRNLI] (H-VGSLVGKRILSELRNLI-NH2) | 20.00 h | 10.00 h | 100.00 h | 16.50 ug/100 g | – | – | – | – | – | – | –
2 | GIGTLLGKKKTKFLKNILKL [SEQ. ID 1, 20-residue antimicrobial peptide, modified from a Bacillus thuringiensis delta-endotoxin fragment] | 20.00 h | 10.00 h | 30.00 h | 85.09 ug/100 g | 63.00 µg/mL | 32.00 µg/mL | 16.00 µg/mL | 8.00 µg/mL | 16.00 µg/mL | sub-micromolar | 5 times
